Source: PubChem BioAssay AID1963826 (Molecular Pharmacology Branch, DTP, NCI, 2024)

Test system: 926638-142-R-J1-PDC complex spheroid viability
Assay: Anticancer human tumor 926638-142-R-J1-PDC patient-derived endometrial carcinoma cell line growth inhibition [POLQ]
Settings: for IC50: curve of first compound; for viability, T/C: stronger effect = lower value
Summary of the method: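 Three-cell-type spheroids modelling solid tumor plus stroma served as the readout system; POL inhibitors were tested individually and in combination, concentration ranges set by clinical Cmax where known.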

[1] = second compound 0.0316 µM, first compound 0.00316 µM
[2] = second compound 0.0316 µM, first compound 0.01 µM
[3] = second compound 0.0316 µM, first compound 0.0316 µM
[4] = second compound 0.0316 µM, first compound 0.1 µM
[5] = second compound 0.0316 µM, first compound 0.316 µM
[6] = second compound 0.0316 µM, first compound 1 µM
[7] = second compound 0.1 µM, first compound 0.00316 µM
[8] = second compound 0.1 µM, first compound 0.01 µM
[9] = second compound 0.1 µM, first compound 0.0316 µM
[10] = second compound 0.1 µM, first compound 0.1 µM
[11] = second compound 0.1 µM, first compound 0.316 µM
[12] = second compound 0.1 µM, first compound 1 µM
[13] = second compound 0.316 µM, first compound 0.00316 µM
[14] = second compound 0.316 µM, first compound 0.01 µM
[15] = second compound 0.316 µM, first compound 0.0316 µM
[16] = second compound 0.316 µM, first compound 0.1 µM
[17] = second compound 0.316 µM, first compound 0.316 µM
[18] = second compound 0.316 µM, first compound 1 µM
[19] = second compound 1 µM, first compound 0.00316 µM
[20] = second compound 1 µM, first compound 0.01 µM
[21] = second compound 1 µM, first compound 0.0316 µM
[22] = second compound 1 µM, first compound 0.1 µM
[23] = second compound 1 µM, first compound 0.316 µM
[24] = second compound 1 µM, first compound 1 µM
[25] = second compound 3.16 µM, first compound 0.00316 µM
[26] = second compound 3.16 µM, first compound 0.01 µM
[27] = second compound 3.16 µM, first compound 0.0316 µM
[28] = second compound 3.16 µM, first compound 0.1 µM
[29] = second compound 3.16 µM, first compound 0.316 µM
[30] = second compound 3.16 µM, first compound 1 µM
[31] = second compound 10 µM, first compound 0.00316 µM
[32] = second compound 10 µM, first compound 0.01 µM
[33] = second compound 10 µM, first compound 0.0316 µM
[34] = second compound 10 µM, first compound 0.1 µM
[35] = second compound 10 µM, first compound 0.316 µM
[36] = second compound 10 µM, first compound 1 µM
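Further: spheroids exposed to drugs for one week before readout.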
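Wherever viability, T/C is given: percent viability relative to DMSO vehicle control wells set as 100%.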

For C=CCn1c(=O)c2cnc(Nc3ccc(N4CCN(C)CC4)cc3)nc2n1-c1cccc(C(C)(C)O)n1 + Cc1cccc(N(C)C(=O)C2C(O)CCN2c2nc(C)cc(C(F)(F)F)c2C#N)c1, the IC50 (second compound 0.0316 µM) was 390 nM, the IC50 (second compound 0.1 µM) was 714 nM and the IC50 (second compound 0.316 µM) was 321 nM. It also gave an IC50 (second compound 1 µM) of 627 nM, an IC50 (second compound 3.16 µM) of 374 nM and an IC50 (second compound 10 µM) of 276 nM. The viability, T/C [1] was 92%, the viability, T/C [2] was 80.1% and the viability, T/C [3] was 90%. For the same compound, the viability, T/C [4] was 64.9%, the viability, T/C [5] was 55.6% and the viability, T/C [6] was 34%. The viability, T/C [7] was 106%, the viability, T/C [8] was 98.3% and the viability, T/C [9] was 88.7%. For the same compound, the viability, T/C [10] was 77.2%, the viability, T/C [11] was 57.8% and the viability, T/C [12] was 46.6%. For the same compound, the viability, T/C [13] was 102%, the viability, T/C [14] was 94.4% and the viability, T/C [15] was 71.6%. For the same compound, the viability, T/C [16] was 61.2%, the viability, T/C [17] was 54.7% and the viability, T/C [18] was 37%. For the same compound, the viability, T/C [19] was 109%, the viability, T/C [20] was 91.5% and the viability, T/C [21] was 76.1%. For the same compound, the viability, T/C [22] was 81.1%, the viability, T/C [23] was 60.8% and the viability, T/C [24] was 40.8%. It also gave a viability, T/C [25] of 87.7%, a viability, T/C [26] of 99.6% and a viability, T/C [27] of 81.2%. For the same compound, the viability, T/C [28] was 78.8%, the viability, T/C [29] was 51.1% and the viability, T/C [30] was 36.9%. It also gave a viability, T/C [31] of 79.5%, a viability, T/C [32] of 78.9% and a viability, T/C [33] of 72.8%. For the same compound, the viability, T/C [34] was 76.2%, the viability, T/C [35] was 46.5% and the viability, T/C [36] was 37.7%.
Work on CCCS(=O)(=O)Nc1ccc(F)c(C(=O)c2c[nH]c3ncc(-c4ccc(Cl)cc4)cc23)c1F + Cc1cccc(N(C)C(=O)C2C(O)CCN2c2nc(C)cc(C(F)(F)F)c2C#N)c1 yielded an IC50 (second compound 0.0316 µM) of 9510 nM, an IC50 (second compound 0.1 µM) greater than 10000 nM and an IC50 (second compound 0.316 µM) greater than 10000 nM. For the same compound, the IC50 (second compound 1 µM) was greater than 10000 nM, the IC50 (second compound 3.16 µM) was 9330 nM and the IC50 (second compound 10 µM) was greater than 10000 nM. It also gave a viability, T/C [3] of 110%, a viability, T/C [4] of 95.8% and a viability, T/C [5] of 97.4%. For the same compound, the viability, T/C [6] was 103%, the viability, T/C (second compound 0.0316 µM, first compound 3.16 µM) was 102% and the viability, T/C (second compound 0.0316 µM, first compound 10 µM) was 47.6%. It also gave a viability, T/C [9] of 117%, a viability, T/C [10] of 103% and a viability, T/C [11] of 96.2%. It also gave a viability, T/C [12] of 96.9%, a viability, T/C (second compound 0.1 µM, first compound 3.16 µM) of 86.4% and a viability, T/C (second compound 0.1 µM, first compound 10 µM) of 58.2%. For the same compound, the viability, T/C [15] was 114%, the viability, T/C [16] was 123% and the viability, T/C [17] was 94.2%. The viability, T/C [18] was 97%, the viability, T/C (second compound 0.316 µM, first compound 3.16 µM) was 80.4% and the viability, T/C (second compound 0.316 µM, first compound 10 µM) was 55.1%. It also gave a viability, T/C [21] of 95.1%, a viability, T/C [22] of 99.4% and a viability, T/C [23] of 89%. It also gave a viability, T/C [24] of 110%, a viability, T/C (second compound 1 µM, first compound 3.16 µM) of 86% and a viability, T/C (second compound 1 µM, first compound 10 µM) of 49.8%. For the same compound, the viability, T/C [27] was 104%, the viability, T/C [28] was 114% and the viability, T/C [29] was 87.1%. The viability, T/C [30] was 88.9%, the viability, T/C (second compound 3.16 µM, first compound 3.16 µM) was 94.7% and the viability, T/C (second compound 3.16 µM, first compound 10 µM) was 46.7%. The viability, T/C [33] was 97.7%, the viability, T/C [34] was 94.1% and the viability, T/C [35] was 77.1%. The viability, T/C [36] was 76.4%, the viability, T/C (second compound 10 µM, first compound 3.16 µM) was 89.4% and the viability, T/C (second compound 10 µM, first compound 10 µM) was 56%.
CCc1c2c(nc3ccc(O)cc13)-c1cc3c(c(=O)n1C2)COC(=O)[C@]3(O)CC + Cc1cccc(N(C)C(=O)C2C(O)CCN2c2nc(C)cc(C(F)(F)F)c2C#N)c1 was tested, and the IC50 (second compound 0.0316 µM) was 6.18 nM, the IC50 (second compound 0.1 µM) was 11.9 nM and the IC50 (second compound 0.316 µM) was 12 nM. It also gave an IC50 (second compound 1 µM) of 9.83 nM, an IC50 (second compound 3.16 µM) of 12.2 nM and an IC50 (second compound 10 µM) of 10.7 nM. The viability, T/C [1] was 55.6%, the viability, T/C [2] was 43.5% and the viability, T/C [3] was 38%. It also gave a viability, T/C [4] of 17.1%, a viability, T/C [5] of 11.1% and a viability, T/C [6] of 5.47%. The viability, T/C [7] was 75.3%, the viability, T/C [8] was 51.9% and the viability, T/C [9] was 35.1%. The viability, T/C [10] was 17.8%, the viability, T/C [11] was 9.35% and the viability, T/C [12] was 4.26%. It also gave a viability, T/C [13] of 69.8%, a viability, T/C [14] of 52.8% and a viability, T/C [15] of 35.6%. For the same compound, the viability, T/C [16] was 19.3%, the viability, T/C [17] was 12.3% and the viability, T/C [18] was 4.42%. It also gave a viability, T/C [19] of 69.6%, a viability, T/C [20] of 50.9% and a viability, T/C [21] of 29.8%. For the same compound, the viability, T/C [22] was 17%, the viability, T/C [23] was 13.9% and the viability, T/C [24] was 4.44%. For the same compound, the viability, T/C [25] was 62.8%, the viability, T/C [26] was 54% and the viability, T/C [27] was 35.1%. It also gave a viability, T/C [28] of 21.1%, a viability, T/C [29] of 9.95% and a viability, T/C [30] of 5.61%. It also gave a viability, T/C [31] of 69.4%, a viability, T/C [32] of 50.5% and a viability, T/C [33] of 34.6%. The viability, T/C [34] was 22.5%, the viability, T/C [35] was 10.4% and the viability, T/C [36] was 4.3%.
